Assay results reported in PMC5125864 (Molecular and biochemical parasitology, 2016).

Target: T1, ehRad51 (Entamoeba histolytica, UniProt C4M4K4)
T1 sequence (C4M4K4 1-366): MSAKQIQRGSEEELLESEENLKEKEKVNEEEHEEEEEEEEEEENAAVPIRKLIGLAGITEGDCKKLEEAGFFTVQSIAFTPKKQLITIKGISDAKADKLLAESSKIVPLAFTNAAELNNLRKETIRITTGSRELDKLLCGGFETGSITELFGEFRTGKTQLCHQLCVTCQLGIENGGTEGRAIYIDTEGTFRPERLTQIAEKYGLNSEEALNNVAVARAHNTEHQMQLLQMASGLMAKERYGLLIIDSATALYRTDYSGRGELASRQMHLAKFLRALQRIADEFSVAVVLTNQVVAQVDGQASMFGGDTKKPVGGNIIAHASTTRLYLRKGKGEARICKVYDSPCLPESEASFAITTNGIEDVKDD
Experiment: oligonucleotide DNA strand exchange
Assay type: biochemical

In the case of `O=S(=O)(O)c1cc(N=C=S)ccc1C=Cc1ccc(N=C=S)cc1S(=O)(=O)O` [DIDS, 4,4′-diisothiocyanostilbene-2,2′-disulfonic acid], the IC50 is reported as 18.5 µM.
